Read-outs that look alike come from different tables or passages of the source.
Key:
pancreatic lipase = target: T1, pancreatic lipase (Rattus norvegicus, UniProt P27657); assay: In vitro pancreatic lipase screen ([14C]-triolein assay); type: biochemical; conditions: read-out: Pancreatic Lipase Activity I50
T1 construct: stimulated to release pancreatic proteins by addition of 10^-5 M carbachol; from tissue; host or cells: pancreatic lobules of fasted Charles River female rats; released pancreatic juice, centrifuged
T1 sequence (P27657 17-465): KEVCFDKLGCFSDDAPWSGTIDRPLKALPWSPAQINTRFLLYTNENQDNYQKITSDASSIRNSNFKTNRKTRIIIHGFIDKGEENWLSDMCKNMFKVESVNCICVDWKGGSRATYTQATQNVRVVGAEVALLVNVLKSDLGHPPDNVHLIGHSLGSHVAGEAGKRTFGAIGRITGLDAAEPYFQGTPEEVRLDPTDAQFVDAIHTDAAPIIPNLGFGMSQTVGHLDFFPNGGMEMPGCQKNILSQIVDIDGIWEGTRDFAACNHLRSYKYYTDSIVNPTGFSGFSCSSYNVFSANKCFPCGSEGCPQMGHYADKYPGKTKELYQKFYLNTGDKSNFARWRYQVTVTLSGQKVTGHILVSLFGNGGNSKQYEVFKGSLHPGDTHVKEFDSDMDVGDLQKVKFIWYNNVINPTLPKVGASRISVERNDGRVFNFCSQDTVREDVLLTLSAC
Experimental: The method for assaying pacreatic lipase in vitro using [^14 C]-triolein was based on the method of Garfinkel and Schotz for lipoprotein lipase, [A. S. Garfinkel and M. C. Schotz (1972). […] Glycerol tri[1-^14 C]oleate (32 mM) was emulsified in 0.2 M Tris-HCl pH 8 containing 0.15 M NaCl, bovine serum albumin (15 mg/ml) and sodium taurocholate (1.4 mM) by sonication for three, one min intervals at 80 watts. Final assay volume was 1.0 ml. The reaction was initiated by the addition of enzyme and was allowed to proceed for 10 min. The reaction was linear for up to 20 min. The liberated free fatty acids were extracted into 0.1 M KOH and quantitated in a liquid scintillation counter using 2,5-bis-2-(5-tertbutylbenzoxazolyl)-tniophene (BBOT) scintillation fluid (Yorktown Research, South Hackensack, N.J.).
Ionophores were added to the above assay as solutions in either 90% ethanol or water, pH 8; 90% ethanol had no effect on the enzyme activity assayed by either method.

[1] = system: fatty acid synthesis in isolated hepatocytes; assay: In vitro fatty acid synthesis in isolated hepatocytes; type: cell-based, Charles River female rat; conditions: for activity at 1 µM / activity at 5 µM / activity at 10 µM / activity at 100 µM / activity at 250 µM / activity at 500 µM / activity at 1000 µM / activity at 2000 µM: Rattus norvegicus, Hepatocyte, 1 h, pH 7.4; for activity at 1 µM: 0.001 mM; for activity at 5 µM: 0.005 mM; for activity at 10 µM: 0.010 mM; for activity at 100 µM: 0.100 mM; for activity at 250 µM: 0.250 mM; for activity at 500 µM: 0.5 mM; for activity at 2000 µM: 2.000 mM
Experimental: Hepatocytes were prepared from meal-fed Charles River female rats as described previously, [A. C. Sullivan, J. Triscari, J. G. Hamilton and J. A. Ontko (1977). Hypolipidemic activity of (-)-hydroxycitrate, Lipids, 12: 1-9]. Briefly, rats were anesthetized with Nembutal, livers were perfused in situ and hepatocytes were isolated in Krebs-Henseleit bicarbonate buffer, pH 7.4. Incubations with isolated hepatocytes were performed in triplicate at 37° C. Each incubation flask contained in a total volume of 2.1 ml, 10.5 mg cells (dry weight), 1 ml of Krebs-Henseleit buffer, pH 7.4, radioactive substrate (1 μCi [U-^14 C]alanine, 1 mCi^3 H2 O and 1 μmole alanine) and 0.3% glucose. The appropriate concentration of inhibitor was prepared in dimethylsulfoxide and added to the incubation flask. Dimethylsulfoxide had no effect on fatty acid synthesis. ^3 H2 O was used to determine the total rate of fatty acid synthesis independently of carbon precursors of acetyl CoA. [^14 C]alanine was used as an acetyl CoA precursor. Rates of fatty acid synthesis were determined as described previously, [A. C. Sullivan, J. Triscari, J. G. Hamilton and J. A. Ontko (1977). Hypolipidemic activity of (-)-hydroxycitrate, Lipids, 12: 1-9]. Data are expressed as nmoles ^3 H2 O or [^14 C]alanine converted into fatty acids per mg dry weight cells in 60 minutes.

[2] = read-out: Fatty Acid Synthesis 3H2O
[3] = read-out: Fatty Acid Synthesis [14C]alanine
[4] = 1.0 mM, read-out: Fatty Acid Synthesis 3H2O
[5] = 1.0 mM, read-out: Fatty Acid Synthesis [14C]alanine

`CO[C@H]1CC[C@H](O[C@@H]2C[C@@H]([C@@H](C)/C=C(\C)C(=O)[C@H](C)C[C@H](C)C(=O)O)O[C@@]3(CC[C@@](C)([C@H]4CC[C@@H](C)[C@@]5(O[C@@H]([C@H]6O[C@@](O)(CO)[C@H](C)C[C@@H]6C)C[C@@H]5C)O4)O3)[C@@H]2C)O[C@@H]1C` [A-130A (Lenoremycin)] gave an IC50 (pancreatic lipase) of 150 µM.

`CC[C@@H](C(=O)[C@@H](C)[C@@H](O)[C@H](C)CCc1c([N+](=O)[O-])cc(C)c(O)c1[N+](=O)[O-])[C@H]1O[C@](CC)([C@H]2CC[C@](O)(CC)[C@H](C)O2)C[C@@H]1C` [Dinitrodescarboxylasalocid,Sodium] showed an activity at 1 µM [1, 2] of 113%, an activity at 1 µM [1, 3] of 102% and an activity at 5 µM [1, 2] of 116%. It also gave an activity at 5 µM [1, 3] of 117%, an activity at 10 µM [1, 2] of 160% and an activity at 10 µM [1, 3] of 169%. The activity at 100 µM [1, 2] was 2%, the activity at 100 µM [1, 3] was 0% and the activity at 250 µM [1, 2] was 3%. It also gave an activity at 250 µM [1, 3] of 0%, an activity at 500 µM [1, 2] of 3% and an activity at 500 µM [1, 3] of 0%. It also gave an activity at 1000 µM [1, 4] of 4%, an activity at 1000 µM [1, 5] of 0% and an activity at 2000 µM [1, 2] of 7%. The activity at 2000 µM [1, 3] was 0%.

With `CNc1ccc2oc(C[C@H]3O[C@@]4(CC[C@H]3C)O[C@H]([C@H](C)C(=O)c3ccc[nH]3)[C@H](C)C[C@H]4C)nc2c1C(=O)O` [Calcimycin] the “Fatty Acid Synthesis 3H2O” value ([1]; 1.0 mM) was 48 % of control and the “Fatty Acid Synthesis [14C]alanine” value ([1]; 1.0 mM) was 0 % of control.

`CC[C@@H](C(=O)[C@@H](C)[C@@H](O)[C@H](C)CCc1ccc(C)c(O)c1C(=O)O)[C@H]1O[C@](CC)([C@H]2CC[C@](O)(CC)[C@H](C)O2)C[C@@H]1C` [Lasalocid,Sodium] showed an activity at 1 µM [1, 2] of 97%, an activity at 1 µM [1, 3] of 88% and an activity at 5 µM [1, 2] of 74%. The activity at 5 µM [1, 3] was 66%, the activity at 10 µM [1, 2] was 61% and the activity at 10 µM [1, 3] was 66%. It also gave an activity at 100 µM [1, 2] of 4%, an activity at 100 µM [1, 3] of 0% and an activity at 250 µM [1, 2] of 6%. The activity at 250 µM [1, 3] was 1%, the activity at 500 µM [1, 2] was 7% and the activity at 500 µM [1, 3] was 3%. The activity at 1000 µM [1, 4] was 11% and the activity at 1000 µM [1, 5] was 0%.

With `C[C@H](CCC(=O)O)C[C@H](C)C[C@H](C)C(=O)/C=C(\O)[C@H](C)C[C@H](C)C/C=C/[C@@H](C)[C@@H](O)[C@@H](C)[C@@H](O)C[C@@H]1CC[C@@](C)([C@H]2CC[C@@](C)([C@@H](C)O)O2)O1` [Ionomycin] the IC50 (pancreatic lipase) was 960 µM.

With `CC/C(=C\C=C\[C@@H]1C=C[C@@H]2[C@@H](CC)CC[C@H]2[C@@H]1C(=O)c1ccc[nH]1)[C@@H]1O[C@@H]([C@@H](C)C(=O)O)CC[C@@H]1C` [X-14547A] the IC50 (pancreatic lipase) was 700 µM.

For `CCC(C(=NOC)C(C)C(O)C(C)CCc1ccc(C)c(O)c1C(=O)O)C1OC(CC)(C2CCC(O)(CC)C(C)O2)CC1C` (centres unmarked) [Lasalocid methoxime], the IC50 (pancreatic lipase) was 200 µM.

`CC[C@@H](C(=O)[C@@H](C)[C@@H](O)[C@H](C)CCc1c(Cl)cc(C)c(O)c1C(=O)O)[C@H]1O[C@](CC)([C@H]2CC[C@](O)(CC)[C@H](C)O2)C[C@@H]1C` [Chlorolasalocid] showed an IC50 (pancreatic lipase) of 7000 µM.

In the case of `CCCCCC(=O)Oc1c(C)ccc(CC[C@@H](C)[C@H](O)[C@H](C)C(=O)[C@H](CC)[C@H]2O[C@](CC)([C@H]3CC[C@](O)(CC)[C@H](C)O3)C[C@@H]2C)c1C(=O)O` [Lasalocid Hexanoate], the IC50 (pancreatic lipase) is reported as 200 µM.

`CO[C@@H]1C[C@@H](C[C@H]2CC[C@H](C)[C@H]([C@@H](C)C(=O)O)O2)O[C@]2(O[C@](C)([C@H]3CC[C@@](C)([C@@H]4O[C@@H]([C@H]5O[C@@](O)(CO)[C@H](C)C[C@@H]5C)C[C@@H]4C)O3)C[C@H]2C)[C@@H]1C` [Nigericin] showed an IC50 (pancreatic lipase) of 2500 µM.

For `CC[C@@H](C(=O)[C@@H](C)[C@@H](O)[C@H](C)CCc1ccc(C)c(OC(=O)c2ccc(Br)cc2)c1C(=O)O)[C@H]1O[C@](CC)([C@H]2CC[C@](O)(CC)[C@H](C)O2)C[C@@H]1C` [Lasalocid 4-bromo benzoate], the IC50 (pancreatic lipase) was 130 µM.

`CCCCCCCCCCCCCCCCCC(=O)Oc1c(C)ccc(CC[C@@H](C)[C@H](O)[C@H](C)C(=O)[C@H](CC)[C@H]2O[C@](CC)([C@H]3CC[C@](O)(CC)[C@H](C)O3)C[C@@H]2C)c1C(=O)O` [Lasalocid Stearate] gave an IC50 (pancreatic lipase) of 110 µM.

Work on `CC[C@@H](C(=O)[C@@H](C)[C@@H](O)[C@H](C)CCc1ccc(C)c(O)c1C(=O)O)[C@H]1O[C@](CC)([C@H]2CC[C@](O)(CC)[C@H](C)O2)C[C@@H]1C` [Lasalocid] yielded an IC50 (pancreatic lipase) of 100 µM.

Molecule `CC[C@@H](C(=O)[C@@H](C)[C@@H](O)[C@H](C)CCc1c([N+](=O)[O-])cc(C)c(O)c1C(=O)O)[C@H]1O[C@](CC)([C@H]2CC[C@](O)(CC)[C@H](C)O2)C[C@@H]1C` [Nitrolasalocid] has an IC50 (pancreatic lipase) of 1320 µM.

In the case of Lysocellin, the IC50 (pancreatic lipase) is reported as 800 µM.

In the case of `CC[C@@H](C(=O)[C@@H](C)[C@@H](O)[C@H](C)CCc1c(I)cc(C)c(O)c1C(=O)O)[C@H]1O[C@](CC)([C@H]2CC[C@](O)(CC)[C@H](C)O2)C[C@@H]1C` [Iodolasalocid], the IC50 (pancreatic lipase) is reported as 260 µM.

In the case of `CCC(C(=O)O)C1CCC(C)C(C(C)C(O)C(C)C(=O)C(CC)C2OC3(C=CCC4(CCC(C)(C5CCC(O)(CC)C(C)O5)O4)O3)C(C)CC2C)O1` (stereo not drawn) [Deoxy-(0-8)-epi-17-salinomycin], the IC50 (pancreatic lipase) is reported as 600 µM.

Molecule `CCCCCCCC(=O)Oc1c(C)ccc(CC[C@@H](C)[C@H](O)[C@H](C)C(=O)[C@H](CC)[C@H]2O[C@](CC)([C@H]3CC[C@](O)(CC)[C@H](C)O3)C[C@@H]2C)c1C(=O)O` [Lasalocid Octanoate] has an IC50 (pancreatic lipase) of 110 µM.

Molecule `CC[C@@H](C(=O)[C@@H](C)[C@@H](O)[C@H](C)CCc1ccc(C)c(OC(C)=O)c1C(=O)O)[C@H]1O[C@](CC)([C@H]2CC[C@](O)(CC)[C@H](C)O2)C[C@@H]1C` [Lasalocid Acetate] has an IC50 (pancreatic lipase) of 120 µM.

With `CCCCCCC(=O)Oc1c(C)ccc(CC[C@@H](C)[C@H](O)[C@H](C)C(=O)[C@H](CC)[C@H]2O[C@](CC)([C@H]3CC[C@](O)(CC)[C@H](C)O3)C[C@@H]2C)c1C(=O)O` [Lasalocid Heptanoate] the IC50 (pancreatic lipase) was 220 µM.

`CCC(C(=O)C(C)C(O)C(C)CCc1ccc(C)c(O)c1C(=O)O)C1OC(CC)(C2CCC(CC)(C(C)O)O2)CC1C` (centres unmarked) [Isolasalocid A] gave an IC50 (pancreatic lipase) of 390 µM.

Reference: US4218443A, “Polyether ionophores as antiobesity and hypotriglyceridemic agents” (Hoffmann-La Roche Inc., priority 1979, dated 1980)
